Test results as given in patent publication US6235707A, “Anticoagulant peptidyl-arginine aldehyde derivatives” (Gyogyszerkutato Intezet Kft., priority 1996, dated 2001).
Where two headings read alike, the source gives them in different places.

Assays:
plasmin (PL) = plasmin (PL) (Homo sapiens, UniProt P00747); test: fibrin-plate method, plasmin; assay type: biochemical
Text: (§1) The inhibitory effect of the new compounds of the invention on plasmin (PL) as well as on plasmin formation induced by tissue plasminogen activator (tPA) and urokinase (UK) was examined by the fibrin-plate method [D. Bagdy et al.: Thromb. Haemost. 67, 325 (1992)]. Compounds C1 and C5 served as controls. […] V. Jackson et al.: J. Cardiovasc. Pharmacol. 21, 587 (1993))]. In Table 4 the results obtained with the new compounds 1 and 2 as well as those with controls C1 and C5 are presented as an example.

[1] = tested on: thrombin-induced blood platelet aggregation; test: ex vivo inhibition of thrombin-induced blood platelet aggregation (PAI) in rabbits after p.o. dosing; set-up: species or system rabbit; conditions: Oryctolagus cuniculus, Platelet, po, p.o. 5 mg/kg, read-out: PAI (%), percentual inhibition of platelet aggregation
Method: (§2) The anticoagulant and platelet aggregation inhibiting effect of the compounds of general formula (I) was studied in New Zealand white rabbits ex vivo according to D. Bagdy et al. [Thromb. Haemost. 67, 357 (1992)]. The compounds were dissolved in buffered isotonic saline solution and administered i.v. (0,04-5.0 mg/kg) or by infusion (0.25-5.0 mg/kg/h) or subcutaneously (0.5-6.0 mg/kg) or p.o. (2.5-20 mg/kg). The effect of the compounds was detectable already within 30 minutes following p.o. administration, peak values were attained after 60-180 minutes and the therapeutic level was maintained dose-dependently for 3→6 hours.
(§3) The in vivo effect of ethoxycarbonyl-3-cyclobutyl-D-alanyl-L-prolyl-L-arginine aldehyde (1) is presented in detail in Tables 6 and 7. The corresponding values of C1 are listed as controls. The compound was administered p.o. in doses of 5 mg/kg. The blood samples drawn from the caudal vein in every 30-60 minutes were analysed. The whole blood clotting time (WBCT) and the inhibition of thrombin-induced blood platelet aggregation (PAI) were determined. The activated partial thromboplastin time (APTT) and the thrombin time (TT) in the citrate plasma obtained from the blood sample were also measured. The APTT and TT values are compiled in Table 6 and the WBCT and PAI values in Table 7.

citrate plasma = test: prothrombin time (PT) plasma clotting test; assay type: biochemical; conditions: Table 3; twofold prolongation compared to control; read-out: A: anticoagulant IC50, PT
Method: (§4) Anticoagulant activity (i.e. inhibition of the proteolytic reactions in the process) is measured by anticoagulant tests, e.g. in the thrombin time (TT), activated partial thromboplastin time (APTT) and prothrombin time (PT) tests [E. J. W. Bovie et al., Mayo Clinic Laboratory Manual of Haemostasis; W. B. Saunders Co., Philadelphia (1971)]. Plasma, inhibited in spontaneous coagulation, e.g. citrate-plasma, is made to coagulate and the required coagulation time is measured. Upon the action of anticoagulants the coagulation time is prolonged proportionally to the inhibition of the reaction(s) in the process. The anticoagulant effect can be characterised by the substance concentration required to prolong the coagulation time twofold compared to the control (IC50). The effect of anticoagulants on individual coagulant proteases is measured by the amidolytic method [R. Lottenberg et al., Methods in Enzymol. 80, 341 (1981); G. Cleason, Blood Coagulation and Fibrinolysis 5, 411 (1994)]. The isolated active factor (e.g. thrombin, fXa) and its chromogen or fluorogen peptide-amide substrate are reacted in the presence or absence of the inhibitor, resp. The enzyme inhibiting action is characterised by the inhibitory constant (IC50) measured during amidolysis.
In the TT test coagulation is initiated by the thrombin added to the citrate plasma. In the system 22 pmol/ml of thrombin is functioning and its inhibition can be measured on the fibrinogen (one of the natural substrates of thrombin) in the presence of plasma components. In the APTT and PT tests the full coagulation process takes place. Depending on the activator fX is activated either by the extrinsic or the intrinsic pathway. The generated fXa activates prothrombin to thrombin which, in turn, triggers plasma coagulation. The coagulation time is prolonged if the enzymes or one of them is inhibited by the inhibitor. In the APTT and PT tests at most 40 pmol/ml Xa can be generated (this is the full amount of factor X present in both systems) while 150 pmol/ml (APTT) and 350 pmol/ml (PT) of thrombin are generated [B. Kaiser et al., Thromb. Res. 65, 157 (1992)].
(§5) The in vitro anticoagulant effects of the compounds of general formula (I) was measured by the prothrombin time (PT), activated partial thromboplastin time (APTT) and thrombin time (TT) tests [D. Bagdy et al., Thromb. Haemost. 67, 325 (1992)]. The fxa-inhibiting effect of the compounds was also determined using the Bz-Ile-Glu-Gly-Arg-pNA chromogen substrate (see method M6).

[2] = tested on: New Zealand white rabbits; test: anticoagulant and platelet aggregation inhibiting effect in rabbits ex vivo, time course; set-up: species or system rabbit; conditions: p.o. 5 mg/kg
Method: as §2, §3

urokinase (UK) = urokinase (UK) (Homo sapiens, UniProt P00749); test: fibrin-plate method, plasmin formation induced by urokinase; assay type: biochemical
Text: as §1

isolated human fXa = target: T1, isolated human fXa (Homo sapiens, UniProt P00742); test: fXa inhibition in solution, amidolytic method on Bz-Ile-Glu-Gly-Arg-pNA chromogen substrate (Method M6); assay type: biochemical; conditions: Table 3; isolated human fXa, Bz-Ile-Glu-Gly-Arg-pNA; read-out: B: fXa inhibiting IC50
T1 construct: The isolated active factor (e.g. thrombin, fXa) and its chromogen or fluorogen peptide-amide substrate are reacted; purchased SIGMA
Method: as §4, §5
Determination of Factor Xa Inhibition in Solution on a 96-well Microtitre Plate
a) By means of phosphate buffer (0.1M sodium phosphate and 0.05M sodium chloride, pH=7.4) 1.3 E/ml solution is prepared from human factor Xa (SIGMA), and 0.1-1.0-10 and 100 μg/ml solutions from the peptide inhibitors. The Bz-Ile-Glu-Gly-Arg-pNA substrate is used in distilled water solution ([…]).
b) From the control and the peptide inhibitor solutions (3 parallel samples of each concentration) 30-30 μl aliquots are placed into the wells. 30 μl of factor Xa, 90 μl of buffer and 150 μl of substrate are added to the peptide solution and the extinction is determined after 10 min. at 405 nm. Thereafter the steps are the same as in M2/c.

[3] = fibrin plate, hydrolysed area reduced to 50% of control
[4] = related to the activity of C1 (1/IC50 = 1)

Chain of plasmin (PL) (P00747 581-810 limits assumed, species assumed): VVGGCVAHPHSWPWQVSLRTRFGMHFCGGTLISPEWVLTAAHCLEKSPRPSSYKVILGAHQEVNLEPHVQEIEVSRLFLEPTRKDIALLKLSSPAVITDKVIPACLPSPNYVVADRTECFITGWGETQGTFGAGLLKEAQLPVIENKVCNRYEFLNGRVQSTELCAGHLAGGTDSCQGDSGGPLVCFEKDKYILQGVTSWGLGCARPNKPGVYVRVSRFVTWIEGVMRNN
Chain of plasmin (PL) (P00747 97-580 partner limits assumed, species assumed): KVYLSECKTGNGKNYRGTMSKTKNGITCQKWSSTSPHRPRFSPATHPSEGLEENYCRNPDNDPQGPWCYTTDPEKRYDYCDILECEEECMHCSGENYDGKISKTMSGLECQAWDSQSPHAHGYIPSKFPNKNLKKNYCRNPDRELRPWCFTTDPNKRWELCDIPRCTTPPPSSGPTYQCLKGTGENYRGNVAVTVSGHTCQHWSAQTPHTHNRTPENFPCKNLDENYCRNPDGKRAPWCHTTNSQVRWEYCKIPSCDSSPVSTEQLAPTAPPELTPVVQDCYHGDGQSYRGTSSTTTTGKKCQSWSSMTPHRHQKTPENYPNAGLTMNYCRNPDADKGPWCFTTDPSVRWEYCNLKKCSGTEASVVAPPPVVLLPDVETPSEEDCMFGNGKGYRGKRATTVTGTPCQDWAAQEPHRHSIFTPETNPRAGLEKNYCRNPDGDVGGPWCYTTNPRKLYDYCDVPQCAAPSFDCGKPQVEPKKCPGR
T1 sequence (P00742 235-488 limits assumed): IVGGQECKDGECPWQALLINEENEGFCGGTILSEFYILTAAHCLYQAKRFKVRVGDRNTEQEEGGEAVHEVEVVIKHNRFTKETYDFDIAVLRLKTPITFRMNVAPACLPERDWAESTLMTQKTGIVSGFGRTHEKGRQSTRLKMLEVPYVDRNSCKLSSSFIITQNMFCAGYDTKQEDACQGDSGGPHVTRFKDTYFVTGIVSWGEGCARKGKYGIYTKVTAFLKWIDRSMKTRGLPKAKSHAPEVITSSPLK
T1 sequence (P00742 41-179 partner limits assumed): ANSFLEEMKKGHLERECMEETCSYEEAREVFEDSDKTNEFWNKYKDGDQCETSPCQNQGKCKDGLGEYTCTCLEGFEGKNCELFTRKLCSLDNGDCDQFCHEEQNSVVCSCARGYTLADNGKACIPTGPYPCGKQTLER

How did the IC50 (plasmin (PL); [3]) turn out when `CCOC(=O)N[C@H](CC1CCC1)C(=O)N1CCC[C@H]1C(=O)N[C@H](C=O)CCCNC(=N)N` [Example 1, Ethoxycarbonyl-3-cyclobutyl-D-alanyl-L-prolyl-L-arginine aldehyde] was run?
The IC50 was 39 µM.

And the “B: relative efficiency, PL” value (plasmin (PL); [4])?
Its value is 1.4.

What about the “activity against PL, times lower than that of compound C5” value (plasmin (PL); text b147, first of three enzymes) of the same molecule?
The value was 3.2 times.

What about the inhibition at 5 mg/kg ([1]; 0 h, 0 min) of the same molecule?
The inhibition at 5 mg/kg was 1%.

And the inhibition at 5 mg/kg ([1]; 0.5 h, 30 min)?
The inhibition at 5 mg/kg was 71.3 ± 16.6%.

And the inhibition at 5 mg/kg ([1]; 0.75 h, 45 min)?
Its inhibition at 5 mg/kg is 55.8 ± 17.4%.

And the inhibition at 5 mg/kg ([1]; 1 h, 60 min)?
Its inhibition at 5 mg/kg is 63.8 ± 21.2%.

And the inhibition at 5 mg/kg ([1]; 1.5 h, 90 min)?
The inhibition at 5 mg/kg was 85.6 ± 10%.

And the inhibition at 5 mg/kg ([1]; 2 h, 120 min)?
Its inhibition at 5 mg/kg is 73.6 ± 19.1%.

What about the inhibition at 5 mg/kg ([1]; 3 h, 180 min) of the same molecule?
Its inhibition at 5 mg/kg is 81.8 ± 11.6%.

What about the inhibition at 5 mg/kg ([1]; 4 h, 240 min) of the same molecule?
Its inhibition at 5 mg/kg is 59.4 ± 19.1%.

And the inhibition at 5 mg/kg ([1]; 5 h, 300 min)?
Its inhibition at 5 mg/kg is 75.8 ± 11.8%.

What about the IC50 (citrate plasma) of the same molecule?
Its IC50 is 1.15 µM.

And the “duration of anticoagulant and antiaggregation effect compared to control C1” value [2]?
Its value is “longer-lasting”.

And the IC50 (urokinase (UK); [3])?
Its IC50 is 120 µM.

What about the “B: relative efficiency, UK” value (urokinase (UK); [4]) of the same molecule?
The value was 0.7.

And the “activity against UK, times lower than that of compound C5” value (urokinase (UK); text b147, third of three enzymes)?
The value was 39 times.

What about the IC50 (isolated human fXa) of the same molecule?
The IC50 was 0.04 µM.
